Experimental data from US7488712B2, “Histone deacetylase inhibitors and methods for producing the same” (Kyushu Institute of Technology, priority 2002, dated 2009).
Read-outs that look alike come from different tables or passages of the source.

How the values were obtained:
human HDAC1 = target: T1, human HDAC1 (Homo sapiens, UniProt Q13547); experiment: In vitro HDAC inhibition activity, [3H]-acetylated histone substrate, HDAC1; assay type: biochemical; settings: Table 3
T1 construct: FLAG; made in house; host or cells: 293T cells (transient transfection, anti-FLAG immunoprecipitation, FLAG peptide elution)
T1 sequence (Q13547 whole entry): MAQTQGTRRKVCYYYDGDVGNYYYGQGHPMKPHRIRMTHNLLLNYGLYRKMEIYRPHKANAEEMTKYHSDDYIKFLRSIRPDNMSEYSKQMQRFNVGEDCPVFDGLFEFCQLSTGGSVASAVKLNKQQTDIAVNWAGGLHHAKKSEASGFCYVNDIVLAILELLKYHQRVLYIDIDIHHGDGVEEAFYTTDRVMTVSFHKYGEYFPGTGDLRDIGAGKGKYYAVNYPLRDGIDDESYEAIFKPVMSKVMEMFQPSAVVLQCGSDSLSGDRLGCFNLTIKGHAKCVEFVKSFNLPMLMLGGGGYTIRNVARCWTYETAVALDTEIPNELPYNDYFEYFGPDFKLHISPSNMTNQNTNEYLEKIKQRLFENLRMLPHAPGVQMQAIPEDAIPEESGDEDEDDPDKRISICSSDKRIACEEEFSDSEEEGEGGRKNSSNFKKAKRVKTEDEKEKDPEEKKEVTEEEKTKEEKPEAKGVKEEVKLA

[1] = Cytotoxicity test (free-LDH ratio), TIG-3; assay type: cell-based; settings: human, TIG-3 human normal lung cells, 48 hours, free-LDH ratio 50%, read-out: LD50 (nM) TIG-3
Description: This was then cultured for 18 hours.

mouse HDAC6 = target: T2, mouse HDAC6 (Mus musculus, UniProt Q9Z2V5); experiment: In vitro HDAC inhibition activity, [3H]-acetylated histone substrate, HDAC6; assay type: biochemical; settings: Table 3
T2 construct: HA; made in house; host or cells: 293T cells (transient transfection, anti-HA immunoprecipitation, HA peptide elution)
T2 sequence (Q9Z2V5 1-1149): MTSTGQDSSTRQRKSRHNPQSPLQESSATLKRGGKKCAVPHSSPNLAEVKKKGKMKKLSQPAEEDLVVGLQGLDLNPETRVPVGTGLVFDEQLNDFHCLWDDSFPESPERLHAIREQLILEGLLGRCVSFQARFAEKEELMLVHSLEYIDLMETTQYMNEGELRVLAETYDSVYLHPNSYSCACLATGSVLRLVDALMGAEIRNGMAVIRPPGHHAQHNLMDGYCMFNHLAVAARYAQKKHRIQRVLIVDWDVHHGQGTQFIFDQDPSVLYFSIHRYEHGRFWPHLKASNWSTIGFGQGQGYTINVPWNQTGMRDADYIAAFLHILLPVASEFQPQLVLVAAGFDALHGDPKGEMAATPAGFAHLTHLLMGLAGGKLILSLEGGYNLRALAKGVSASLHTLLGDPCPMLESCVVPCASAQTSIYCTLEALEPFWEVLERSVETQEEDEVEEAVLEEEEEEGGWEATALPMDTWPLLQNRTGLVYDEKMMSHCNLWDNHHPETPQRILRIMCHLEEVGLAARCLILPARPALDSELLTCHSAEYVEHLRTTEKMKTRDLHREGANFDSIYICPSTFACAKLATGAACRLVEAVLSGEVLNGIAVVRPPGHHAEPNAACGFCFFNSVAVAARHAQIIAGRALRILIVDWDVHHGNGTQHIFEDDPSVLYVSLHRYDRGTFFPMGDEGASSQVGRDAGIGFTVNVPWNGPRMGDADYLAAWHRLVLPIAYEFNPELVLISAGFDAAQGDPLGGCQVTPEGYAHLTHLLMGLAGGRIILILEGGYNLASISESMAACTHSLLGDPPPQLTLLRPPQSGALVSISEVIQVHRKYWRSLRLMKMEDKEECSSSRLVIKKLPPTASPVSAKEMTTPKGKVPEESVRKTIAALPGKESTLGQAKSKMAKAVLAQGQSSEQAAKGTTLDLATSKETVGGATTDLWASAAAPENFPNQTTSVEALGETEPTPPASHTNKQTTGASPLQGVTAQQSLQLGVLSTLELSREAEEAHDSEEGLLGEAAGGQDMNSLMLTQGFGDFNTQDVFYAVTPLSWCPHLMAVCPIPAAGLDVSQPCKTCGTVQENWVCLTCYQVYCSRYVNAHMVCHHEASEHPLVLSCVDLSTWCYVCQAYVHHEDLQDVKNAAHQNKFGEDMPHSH

With `CC[C@H](C)[C@@H]1NC(=O)[C@@H](Cc2ccc(OC)cc2)NC(=O)[C@H](CCCCCSSc2ccncc2)NC(=O)[C@H]2CCCN2C1=O` [SCOP 402, cyclo(-L-Am7(S4Py)-D-Tyr(Me)-L-Ile-D-Pro-)] the IC50 (human HDAC1; hybrid with DTT (/DTT)) was 0.553 nM, the IC50 (human HDAC1; hybrid, without DTT) was 6.76 nM and the CC50 at 48 h ([1]; with DTT (/DTT)) was 4460 nM. For the same compound, the CC50 at 48 h ([1]; without DTT) was 13300 nM, the IC50 (mouse HDAC6; hybrid with DTT (/DTT)) was 2010 nM and the IC50 (mouse HDAC6; hybrid, without DTT) was 1610 nM.
